These results are taken from patent US8613914B2, “Peptidomimetic sulfamide compounds and antiviral uses thereof” (Novartis AG, priority 2009, dated 2013).

Each structure is given as a SMILES string.

By IC50 is commonly meant the point on the concentration scale where inhibition reaches its midpoint.

The target of this assay is HCV NS3-4A serine protease (full-length NS3-4A protein) (Hepatitis C virus genotype 1a (isolate 1) (HCV), UniProt P26664). The assay can be described thus: HCV NS3-4A protease assay. The following applies: strain HCV-1, fluorogenic peptide substrate, read-out: Protease assay Ex. 12 IC50. The class given is biochemical, HCV genotype 1a. As to the method: The inhibitory activity of certain compounds of Table A against HCV NS3-4A serine protease is determined in a homogenous assay using the full-length NS3-4A protein (genotype 1a, strain HCV-1) and a commercially available internally-quenched fluorogenic peptide substrate as described by Taliani, M., et al. 1996 Anal. Biochem. 240:60-67, which is incorporated by reference in its entirety.
Chain of HCV NS3-4A serine protease (full-length NS3-4A protein) (P26664 1027-1657): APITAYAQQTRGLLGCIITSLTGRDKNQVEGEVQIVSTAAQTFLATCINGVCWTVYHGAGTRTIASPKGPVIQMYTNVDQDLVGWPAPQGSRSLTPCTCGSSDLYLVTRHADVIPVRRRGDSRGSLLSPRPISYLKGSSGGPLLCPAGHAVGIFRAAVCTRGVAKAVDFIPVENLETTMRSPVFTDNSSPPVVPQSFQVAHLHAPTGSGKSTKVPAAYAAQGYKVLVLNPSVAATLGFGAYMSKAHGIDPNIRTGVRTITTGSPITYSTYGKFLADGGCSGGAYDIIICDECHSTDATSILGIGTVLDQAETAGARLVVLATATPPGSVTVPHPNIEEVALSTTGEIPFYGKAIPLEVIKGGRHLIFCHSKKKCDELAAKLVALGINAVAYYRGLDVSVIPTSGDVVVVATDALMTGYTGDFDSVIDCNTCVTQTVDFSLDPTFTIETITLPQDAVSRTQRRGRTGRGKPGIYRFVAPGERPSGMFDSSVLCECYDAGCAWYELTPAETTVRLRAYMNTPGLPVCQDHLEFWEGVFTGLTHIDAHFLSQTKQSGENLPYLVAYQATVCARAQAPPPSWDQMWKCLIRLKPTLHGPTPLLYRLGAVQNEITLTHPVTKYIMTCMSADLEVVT
Chain of HCV NS3-4A serine protease (full-length NS3-4A protein) (P26664 1658-1711 partner): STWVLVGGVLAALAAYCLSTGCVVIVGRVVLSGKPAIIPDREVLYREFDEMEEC
Turning to `C=C[C@@H]1C[C@]1(NC(=O)[C@@H]1C[C@@]2(CN1C(=O)[C@@H](NC(=O)OC(C)(C)C)C(C)(C)C)C(C)(C)C21CCC1)C(=O)NS(=O)(=O)N1CCCC1` [Compound 1, tert-butyl [(1S)-1-{[(5R,8S)-10,10-dimethyl-8-({(1R,2S)-1-[(pyrrolidin-1-ylsulfonyl)carbamoyl]-2-vinylcyclopropyl}carbamoyl)-7-azadispiro[3.0.4.1]dec-7-yl]carbonyl}-2,2-dimethylpropyl]carbamate], the IC50 was 400 nM.

`C=C[C@@H]1C[C@]1(NC(=O)[C@@H]1C[C@@]2(CN1C(=O)[C@@H](NC(=O)[C@@H](NC(=O)OC(C)(C)C)C(C)(C)C)C(C)(C)C)C(C)(C)C21CCC1)C(=O)NS(=O)(=O)N1CCCC1` [Compound 2, tert-butyl [(1S)-1-{[(1S)-1-{[(5R,8S)-10,10-dimethyl-8-({(1R,2S)-1-[(pyrrolidin-1-ylsulfonyl)carbamoyl]-2-vinylcyclopropyl}carbamoyl)-7-azadispiro[3.0.4.1]dec-7-yl]carbonyl}-2,2-dimethylpropyl]carbamoyl}-2,2-dimethylpropyl]carbamate]: the IC50 stood at 750 nM.

`C=C[C@@H]1C[C@]1(NC(=O)[C@@H]1C[C@@]2(CN1C(=O)[C@@H](NC(=O)[C@@H](NC(=O)[C@@H]1CCCCN1C(C)C)C(C)(C)C)C(C)(C)C)C(C)(C)C21CCC1)C(=O)NS(=O)(=O)N1CCCC1` [Compound 3, (5R,8S)-7-[(2S)-2-{[(2S)-2-({[(2S)-1-isopropylpiperidin-2-yl]carbonyl}amino)-3,3-dimethylbutanoyl]amino}-3,3-dimethylbutanoyl]-10,10-dimethyl-N-{(1R,2S)-1-[(pyrrolidin-1-ylsulfonyl)carbamoyl]-2-vinylcyclopropyl}-7-azadispiro[3.0.4.1]decane-8-carboxamide]: the IC50 stood at 6 nM.

On to `C=C[C@@H]1C[C@]1(NC(=O)[C@@H]1C[C@@]2(CN1C(=O)[C@@H](NC(=O)[C@@H](NC(=O)[C@@H]1CCCN(CC)C1)C(C)(C)C)C(C)(C)C)C(C)(C)C21CCC1)C(=O)NS(=O)(=O)N1CCCC1` [Compound 4, (5R,8S)-7-[(2S)-2-{[(2S)-2-({[(3R)-1-ethylpiperidin-3-yl]carbonyl}amino)-3,3-dimethylbutanoyl]amino}-3,3-dimethylbutanoyl]-10,10-dimethyl-N-{(1R,2S)-1-[(pyrrolidin-1-ylsulfonyl)carbamoyl]-2-vinylcyclopropyl}-7-azadispiro[3.0.4.1]decane-8-carboxamide], for which the IC50 was 35 nM.

As for `C=C[C@@H]1C[C@]1(NC(=O)[C@@H]1C[C@@]2(CN1C(=O)[C@@H](NC(=O)[C@@H](NC(=O)OC(C)(C)C)C(C)(C)C)C(C)(C)C)C(C)(C)C21CCC1)C(=O)NS(=O)(=O)N1CCOCC1` [Compound 5, tert-butyl [(1S)-1-{[(1S)-1-{[(5R,8S)-10,10-dimethyl-8-({(1R,2S)-1-[(morpholin-4-ylsulfonyl)carbamoyl]-2-vinylcyclopropyl}carbamoyl)-7-azadispiro[3.0.4.1]dec-7-yl]carbonyl}-2,2-dimethylpropyl]carbamoyl}-2,2-dimethylpropyl]carbamate], the half-inhibitory concentration (IC50) is 6650 nM.

As for `C=C[C@@H]1C[C@]1(NC(=O)[C@@H]1C[C@@]2(CN1C(=O)[C@@H](NC(=O)[C@@H](NC(=O)[C@@H]1CCCCN1C(C)C)C(C)(C)C)C(C)(C)C)C(C)(C)C21CCC1)C(=O)NS(=O)(=O)N1CCOCC1` [Compound 6, (5R,8S)-7-[(2S)-2-{[(2S)-2-({[(2S)-1-isopropylpiperidin-2-yl]carbonyl}amino)-3,3-dimethylbutanoyl]amino}-3,3-dimethylbutanoyl]-10,10-dimethyl-N-{(1R,2S)-1-[(morpholin-4-ylsulfonyl)carbamoyl]-2-vinylcyclopropyl}-7-azadispiro[3.0.4.1]decane-8-carboxamide], the IC50 amounted to 45 nM.

`C=C[C@@H]1C[C@]1(NC(=O)[C@@H]1C[C@@]2(CN1C(=O)[C@@H](NC(=O)[C@@H](NC(=O)[C@@H]1CCCN(CC)C1)C(C)(C)C)C(C)(C)C)C(C)(C)C21CCC1)C(=O)NS(=O)(=O)N1CCOCC1` [Compound 7, (5R,8S)-7-[(2S)-2-{[(2S)-2-({[(3R)-1-ethylpiperidin-3-yl]carbonyl}amino)-3,3-dimethylbutanoyl]amino}-3,3-dimethylbutanoyl]-10,10-dimethyl-N-{(1R,2S)-1-[(morpholin-4-ylsulfonyl)carbamoyl]-2-vinylcyclopropyl}-7-azadispiro[3.0.4.1]decane-8-carboxamide]: the IC50 was 450 nM.

As to `C=C[C@@H]1C[C@]1(NC(=O)[C@@H]1C[C@@]2(CN1C(=O)[C@@H](NC(=O)[C@@H](NC(=O)[C@@H]1CCCCN1CCF)C(C)(C)C)C(C)(C)C)C(C)(C)C21CCC1)C(=O)NS(=O)(=O)N1CCOCC1` [Compound 8, (5R,8S)-7-[(2S)-2-{[(2S)-2-({[(2S)-1-(2-fluoroethyl)piperidin-2-yl]carbonyl}amino)-3,3-dimethylbutanoyl]amino}-3,3-dimethylbutanoyl]-10,10-dimethyl-N-{(1R,2S)-1-[(morpholin-4-ylsulfonyl)carbamoyl]-2-vinylcyclopropyl}-7-azadispiro[3.0.4.1]decane-8-carboxamide], the IC50 came to 300 nM.

Take `C=C[C@@H]1C[C@]1(NC(=O)[C@@H]1C[C@@]2(CN1C(=O)[C@@H](NC(=O)[C@@H](N1CCCC1=O)C(C)(C)C)C(C)(C)C)C(C)(C)C21CCC1)C(=O)NS(=O)(=O)N1CCCC1` [Compound 9, (5R,8S)-7-[(2S)-2-{[(2S)-3,3-dimethyl-2-(2-oxopyrrolidin-1-yl)butanoyl]amino}-3,3-dimethylbutanoyl]-10,10-dimethyl-N-{(1R,2S)-1-[(pyrrolidin-1-ylsulfonyl)carbamoyl]-2-vinylcyclopropyl}-7-azadispiro[3.0.4.1]decane-8-carboxamide]: the IC50 was 100 nM.

For the compound `C=C[C@@H]1C[C@]1(NC(=O)[C@@H]1C[C@@]2(CN1C(=O)[C@@H](NC(=O)[C@@H](NC(=O)C(C)(C)N1CCCC1)C(C)(C)C)C(C)(C)C)C(C)(C)C21CCC1)C(=O)NS(=O)(=O)N1CCCC1` [Compound 10, (5R,8S)-7-[(2S)-2-({(2S)-3,3-dimethyl-2-[(2-methyl-2-pyrrolidin-1-ylpropanoyl)amino]butanoyl}amino)-3,3-dimethylbutanoyl]-10,10-dimethyl-N-{(1R,2S)-1-[(pyrrolidin-1-ylsulfonyl)carbamoyl]-2-vinylcyclopropyl}-7-azadispiro[3.0.4.1]decane-8-carboxamide], the half-maximal inhibitory concentration (IC50) turned out to be 65 nM.

Regarding `C=C[C@@H]1C[C@]1(NC(=O)[C@@H]1C[C@@]2(CN1C(=O)[C@@H](NC(=O)[C@@H](NC(=O)[C@@H]1CCCN1C(C)C)C(C)(C)C)C(C)(C)C)C(C)(C)C21CCC1)C(=O)NS(=O)(=O)N1CCCC1` [Compound 11, (5R,8S)-7-[(2S)-2-{[(2S)-2-({[(2S)-1-isopropylpyrrolidin-2-yl]carbonyl}amino)-3,3-dimethylbutanoyl]amino}-3,3-dimethylbutanoyl]-10,10-dimethyl-N-{(1R,2S)-1-[(pyrrolidin-1-ylsulfonyl)carbamoyl]-2-vinylcyclopropyl}-7-azadispiro[3.0.4.1]decane-8-carboxamide], the IC50 turned out to be 20 nM.

`C=C[C@@H]1C[C@]1(NC(=O)[C@@H]1C[C@@]2(CN1C(=O)[C@@H](NC(=O)[C@@H](NC(=O)[C@@H]1CCN1C(C)C)C(C)(C)C)C(C)(C)C)C(C)(C)C21CCC1)C(=O)NS(=O)(=O)N1CCCC1` [Compound 12, (5R,8S)-7-[(2S)-2-{[(2S)-2-({[(2S)-1-isopropylazetidin-2-yl]carbonyl}amino)-3,3-dimethylbutanoyl]amino}-3,3-dimethylbutanoyl]-10,10-dimethyl-N-{(1R,2S)-1-[(pyrrolidin-1-ylsulfonyl)carbamoyl]-2-vinylcyclopropyl}-7-azadispiro[3.0.4.1]decane-8-carboxamide]: the 50% inhibitory concentration (IC50) came to 40 nM.

On to `C=C[C@@H]1C[C@]1(NC(=O)[C@@H]1C[C@@]2(CN1C(=O)[C@@H](NC(=O)[C@@H](NC(=O)[C@@H]1CCCCN1C(C)C)C1CCCCC1)C(C)(C)C)C(C)(C)C21CCC1)C(=O)NS(=O)(=O)N1CCCC1` [Compound 13, (5R,8S)-7-[(2S)-2-{[(2S)-2-cyclohexyl-2-({[(2S)-1-isopropylpiperidin-2-yl]carbonyl}amino)acetyl]amino}-3,3-dimethylbutanoyl]-10,10-dimethyl-N-{(1R,2S)-1-[(pyrrolidin-1-ylsulfonyl)carbamoyl]-2-vinylcyclopropyl}-7-azadispiro[3.0.4.1]decane-8-carboxamide], for which the IC50 was determined as 3 nM.

As for `C=C[C@@H]1C[C@]1(NC(=O)[C@@H]1C[C@@]2(CN1C(=O)[C@@H](NC(=O)[C@@H](NC(=O)C(C)(C)N1CCCC1)C1CCCCC1)C(C)(C)C)C(C)(C)C21CCC1)C(=O)NS(=O)(=O)N1CCCC1` [Compound 14, (5R,8S)-7-[(2S)-2-({(2S)-2-cyclohexyl-2-[(2-methyl-2-pyrrolidin-1-ylpropanoyl)amino]acetyl}amino)-3,3-dimethylbutanoyl]-10,10-dimethyl-N-{(1R,2S)-1-[(pyrrolidin-1-ylsulfonyl)carbamoyl]-2-vinylcyclopropyl}-7-azadispiro[3.0.4.1]decane-8-carboxamide], the IC50 was found to be 3 nM.

As for `C=C[C@@H]1C[C@]1(NC(=O)[C@@H]1C[C@@]2(CN1C(=O)[C@@H](NC(=O)[C@@H](NC(=O)[C@@H]1CCCN1C(C)C)C1CCCCC1)C(C)(C)C)C(C)(C)C21CCC1)C(=O)NS(=O)(=O)N1CCCC1` [Compound 15, (5R,8S)-7-[(2S)-2-{[(2S)-2-cyclohexyl-2-({[(2S)-1-isopropylpyrrolidin-2-yl]carbonyl}amino)acetyl]amino}-3,3-dimethylbutanoyl]-10,10-dimethyl-N-{(1R,2S)-1-[(pyrrolidin-1-ylsulfonyl)carbamoyl]-2-vinylcyclopropyl}-7-azadispiro[3.0.4.1]decane-8-carboxamide], the half-inhibitory concentration (IC50) is 2 nM.
